What was measured:
[1] = biological target: Dual specificity mitogen-activated protein kinase kinase 1 (Homo sapiens, UniProt Q02750); assay: Inhibitory activity against MEK
[2] = biological target: Vascular endothelial growth factor receptor 2 (Homo sapiens) (UniProt P35968); assay: Inhibitory activity against VEGFR2 upto 50 uM
HT-29 = assay: Antiproliferative activity against human tumor HT29 cell line; type: functional
COLO 205 = assay: Antiproliferative activity against human tumor Colo205 cell line; type: functional

Sequence of Dual specificity mitogen-activated protein kinase kinase 1 (Q02750 whole entry): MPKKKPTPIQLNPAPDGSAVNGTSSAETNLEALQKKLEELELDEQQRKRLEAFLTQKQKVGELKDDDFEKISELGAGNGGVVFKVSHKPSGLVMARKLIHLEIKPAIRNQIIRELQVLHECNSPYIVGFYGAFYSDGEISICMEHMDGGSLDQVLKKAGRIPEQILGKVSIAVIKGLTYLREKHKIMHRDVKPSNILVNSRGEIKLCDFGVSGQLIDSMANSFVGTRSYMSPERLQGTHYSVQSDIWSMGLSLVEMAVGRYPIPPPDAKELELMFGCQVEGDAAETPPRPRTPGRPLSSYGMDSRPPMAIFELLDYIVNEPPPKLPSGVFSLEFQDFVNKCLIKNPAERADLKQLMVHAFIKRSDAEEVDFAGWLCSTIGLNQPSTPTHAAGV
Sequence of Vascular endothelial growth factor receptor 2 (Homo sapiens) (P35968 whole entry): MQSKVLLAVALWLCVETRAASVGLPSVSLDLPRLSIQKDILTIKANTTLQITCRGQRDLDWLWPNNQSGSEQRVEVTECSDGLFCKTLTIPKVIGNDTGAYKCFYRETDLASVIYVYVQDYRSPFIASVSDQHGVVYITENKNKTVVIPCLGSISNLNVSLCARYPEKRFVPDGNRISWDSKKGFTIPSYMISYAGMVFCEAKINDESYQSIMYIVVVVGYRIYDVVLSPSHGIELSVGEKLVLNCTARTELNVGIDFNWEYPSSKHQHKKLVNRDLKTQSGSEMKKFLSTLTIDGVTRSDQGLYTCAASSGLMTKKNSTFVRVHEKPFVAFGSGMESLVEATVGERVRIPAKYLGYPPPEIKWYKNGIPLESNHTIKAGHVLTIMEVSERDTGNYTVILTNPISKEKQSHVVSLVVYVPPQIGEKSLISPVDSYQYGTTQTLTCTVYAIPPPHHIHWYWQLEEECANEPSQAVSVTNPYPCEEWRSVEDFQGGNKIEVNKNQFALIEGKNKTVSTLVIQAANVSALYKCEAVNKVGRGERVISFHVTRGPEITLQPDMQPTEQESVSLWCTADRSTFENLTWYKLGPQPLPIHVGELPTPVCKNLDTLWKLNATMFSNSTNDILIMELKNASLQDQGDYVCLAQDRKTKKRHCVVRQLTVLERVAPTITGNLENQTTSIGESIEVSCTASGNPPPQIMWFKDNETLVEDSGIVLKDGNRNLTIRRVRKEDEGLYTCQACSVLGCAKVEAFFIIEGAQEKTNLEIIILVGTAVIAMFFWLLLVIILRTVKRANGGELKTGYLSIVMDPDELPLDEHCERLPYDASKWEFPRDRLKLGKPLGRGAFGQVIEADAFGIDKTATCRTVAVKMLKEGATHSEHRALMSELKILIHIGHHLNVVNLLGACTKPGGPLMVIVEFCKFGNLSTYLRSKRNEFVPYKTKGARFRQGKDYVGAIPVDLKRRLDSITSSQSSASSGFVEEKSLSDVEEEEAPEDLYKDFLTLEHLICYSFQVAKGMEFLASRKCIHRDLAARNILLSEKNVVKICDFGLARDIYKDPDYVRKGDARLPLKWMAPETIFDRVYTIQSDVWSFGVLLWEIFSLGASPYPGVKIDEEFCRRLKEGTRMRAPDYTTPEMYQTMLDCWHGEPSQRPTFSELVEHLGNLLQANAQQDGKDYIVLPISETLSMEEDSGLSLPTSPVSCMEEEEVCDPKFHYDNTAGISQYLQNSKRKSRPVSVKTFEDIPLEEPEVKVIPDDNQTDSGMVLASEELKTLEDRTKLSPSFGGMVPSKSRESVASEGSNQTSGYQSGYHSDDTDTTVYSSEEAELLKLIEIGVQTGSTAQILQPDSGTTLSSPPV

Row | Compound | IC50 [1] | inhibition [2] | Activity (HT-29) | Activity (COLO 205)
1 | Cc1c(C(=O)O)cn2ncc(C#N)c(Nc3ccc(Oc4ccccc4)cc3)c12 | 147 nM | – | – | –
2 | CCOC(=O)c1cn2ncc(C#N)c(Nc3ccc(Oc4ccccc4)cc3)c2c1CO | 203 nM | – | – | –
3 | CCOC(=O)c1cn2ncc(C#N)c(Nc3ccc(Nc4ccccc4)cc3)c2c1C | 2320 nM | – | – | –
4 | Cc1c(N)cn2ncc(C#N)c(Nc3ccc(Oc4ccccc4)cc3)c12 | 190 nM | – | – | –
5 | CCOC(=O)c1cn2ncc(C#N)c(Nc3ccc(C(=O)c4ccccc4)cc3)c2c1C | 1110 nM | – | – | –
6 | Cc1c(NS(=O)(=O)c2ccccc2)cn2ncc(C#N)c(Nc3ccc(Oc4ccccc4)cc3)c12 | 14600 nM | – | – | –
7 | Cc1c(OCCN2CCOCC2)cn2ncc(C#N)c(Nc3ccc(Oc4ccccc4)cc3)c12 | 521 nM | – | – | –
8 | Cc1c(-c2nc3ccccc3[nH]2)cn2ncc(C#N)c(Nc3ccc(Oc4ccccc4)cc3)c12 | 168 nM | – | – | –
9 | Cc1c(C(=O)NCCN2CCOCC2)cn2ncc(C#N)c(Nc3ccc(Oc4ccccc4)cc3)c12 | 386 nM | – | – | –
10 | CCOC(=O)c1cn2ncc(C#N)c(Nc3ccc(Oc4ccccc4)cc3)c2c1COCCOC | 566 nM | – | – | –
11 | CCOC(=O)c1cn2ncnc(Nc3ccc(Oc4ccccc4)cc3)c2c1C | 3470 nM | – | – | –
12 | CCOC(=O)c1cn2ncc(C#N)c(Nc3ccc(Oc4ccc(Cl)cc4)cc3)c2c1C | 642 nM | – | – | –
13 | Cc1c(C(=O)O)cn2ncc(CNS(C)(=O)=O)c(Nc3ccc(Oc4ccccc4)cc3)c12 | > 25000 nM | – | – | –
14 | CCOC(=O)c1cn2ncc(C#N)c(Oc3ccc(Oc4ccccc4)cc3)c2c1C | 5420 nM | – | – | –
15 | CCOC(=O)c1cn2ncc(C#N)c(Nc3ccc(OCc4ccccc4)cc3)c2c1C | > 25000 nM | – | – | –
16 | CCOC(=O)c1cn2ncc(C#N)c(Nc3ccc(-c4ccccc4)cc3)c2c1C | > 25000 nM | – | – | –
17 | Cc1ccn2ncc(C#N)c(Nc3ccc(Oc4ccccc4)cc3)c12 | 241 nM | – | >10 µM | >10 µM
18 | CCOC(=O)c1cn2ncc(C#N)c(NCc3ccc(Oc4ccccc4)cc3)c2c1C | > 25000 nM | – | – | –
19 | CC(=O)NCc1cnn2cc(C(=O)O)c(C)c2c1Nc1ccc(Oc2ccccc2)cc1 | > 25000 nM | – | – | –
20 | Cc1c(C(=O)O)cn2ncc(CN)c(Nc3ccc(Oc4ccccc4)cc3)c12 | > 25000 nM | – | – | –
21 | Cc1c(C(C)(C)O)cn2ncc(C#N)c(Nc3ccc(Oc4ccccc4)cc3)c12 | > 25000 nM | – | – | –
22 | CCOC(=O)c1cn2ncc(C#N)c(Nc3ccccc3)c2c1C | > 25000 nM | – | – | –
23 | CCOCc1c(C(=O)OCC)cn2ncc(C#N)c(Nc3ccc(Oc4ccccc4)cc3)c12 | 331 nM | – | – | –

These reach a lower IC50 [1]. Values come first.

Row | IC50 [1] | inhibition [2] | Compound | Activity (HT-29) | Activity (COLO 205)
24 | 33 nM | – | Cc1c(NC(=O)NCCN2CCOCC2)cn2ncc(C#N)c(Nc3ccc(Oc4ccccc4F)cc3)c12 | – | –
25 | 29 nM | – | COc1cccc(Oc2ccc(Nc3c(C#N)cnn4cc(NC(=O)NCCN5CCOCC5)c(C)c34)cc2)c1 | – | –
26 | 58 nM | < 5% | Cc1c(NC(=O)OCCN2CCOCC2)cn2ncc(C#N)c(Nc3ccc(Oc4ccccc4)cc3)c12 | 3.76 µM | 2.88 µM
27 | 76 nM | – | COc1cccc(Oc2ccc(Nc3c(C#N)cnn4cc(NC(=O)OCCN5CCOCC5)c(C)c34)cc2)c1 | 2.35 µM | 0.72 µM
28 | 18 nM | – | CNC(=O)Nc1cn2ncc(C#N)c(Nc3ccc(Oc4ccccc4)cc3)c2c1C | 7.38 µM | –
29 | 48 nM | – | COc1ccccc1Oc1ccc(Nc2c(C#N)cnn3cc(NC(=O)OCCN4CCOCC4)c(C)c23)cc1 | 3.78 µM | 2.06 µM
30 | 24 nM | – | COc1ccccc1Oc1ccc(Nc2c(C#N)cnn3cc(NC(=O)NCCN4CCOCC4)c(C)c23)cc1 | – | –
31 | 14 nM | – | CC(=O)Nc1cccc(C(=O)Nc2cn3ncc(C#N)c(Nc4ccc(Oc5ccccc5)cc4)c3c2C)c1 | 1.34 µM | 1.86 µM
32 | 36 nM | < 5% | Cc1c(NC(=O)NCCN2CCOCC2)cn2ncc(C#N)c(Nc3ccc(Oc4ccccc4)cc3)c12 | 0.86 µM | 3.9 µM
33 | 42 nM | – | Cc1c(NC(=O)c2ccccc2)cn2ncc(C#N)c(Nc3ccc(Oc4ccccc4)cc3)c12 | 2.13 µM | 2.42 µM
34 | 23 nM | – | COC(=O)Nc1cn2ncc(C#N)c(Nc3ccc(Oc4ccccc4)cc3)c2c1C | 7.64 µM | –
35 | 68 nM | – | CCOC(=O)c1cn2ncc(C#N)c(Nc3ccc(Cc4ccccc4)cc3)c2c1C | – | –
